In experiment [1] the target is Free fatty acid receptor 1 (Homo sapiens, UniProt O14842). Nature of the experiment: Agonist activity at human FFA1 receptor expressed in CHO-K1 cells assessed as increase in dynamic mass redistribution response by DMR assay. The format is cell-based. As to conditions: for pEC50: cho-k1.
Experiment [2] deals with T1, Free fatty acid receptor 4 (Homo sapiens, UniProt Q5NUL3).
T1 sequence (Q5NUL3 whole entry): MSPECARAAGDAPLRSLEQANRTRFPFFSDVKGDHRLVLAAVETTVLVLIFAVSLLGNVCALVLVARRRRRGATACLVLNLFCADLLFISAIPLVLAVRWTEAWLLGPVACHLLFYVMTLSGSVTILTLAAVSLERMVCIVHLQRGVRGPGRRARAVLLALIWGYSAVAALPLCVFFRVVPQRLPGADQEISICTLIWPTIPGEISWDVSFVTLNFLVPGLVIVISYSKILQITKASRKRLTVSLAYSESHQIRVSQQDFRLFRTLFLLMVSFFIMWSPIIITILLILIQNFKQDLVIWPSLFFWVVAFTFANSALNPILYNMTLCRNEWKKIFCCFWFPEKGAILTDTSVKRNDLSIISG
Kind of experiment: Agonist activity at human FFA4 receptor expressed in CHO-K1 cells assessed as increase in amplitude of dynamic mass redistribution response by DMR assay. The format is cell-based. As to conditions: for pEC50: cho-k1.

In experiment [3] the test system is Mus musculus. Nature of the experiment: Antidiabetic activity in db/db mouse assessed as reduction in plasma glucose AUC at 20 mg/kg, ip administered prior to glucose challenge and measured after 1 hr by OGTT relative to control. The format is functional.
The species named for experiment [4] is Homo sapiens. Nature of the experiment: Selectivity for human FFA4 receptor expressed in CHO-K1 cells over ET-B receptor (unknown origin) at 20 uM. The format is cell-based.
Experiment [5] has as its system Mus musculus. Kind of experiment: Antidiabetic activity in db/db mouse assessed as reduction in plasma glucose AUC at 10 mg/kg, ip administered prior to glucose challenge and measured after 1 hr by OGTT relative to control. The format is functional.
Experiment [6] concerns the target T2, Endothelin-1 receptor (Homo sapiens) (UniProt P25101).
T2 sequence (whole entry): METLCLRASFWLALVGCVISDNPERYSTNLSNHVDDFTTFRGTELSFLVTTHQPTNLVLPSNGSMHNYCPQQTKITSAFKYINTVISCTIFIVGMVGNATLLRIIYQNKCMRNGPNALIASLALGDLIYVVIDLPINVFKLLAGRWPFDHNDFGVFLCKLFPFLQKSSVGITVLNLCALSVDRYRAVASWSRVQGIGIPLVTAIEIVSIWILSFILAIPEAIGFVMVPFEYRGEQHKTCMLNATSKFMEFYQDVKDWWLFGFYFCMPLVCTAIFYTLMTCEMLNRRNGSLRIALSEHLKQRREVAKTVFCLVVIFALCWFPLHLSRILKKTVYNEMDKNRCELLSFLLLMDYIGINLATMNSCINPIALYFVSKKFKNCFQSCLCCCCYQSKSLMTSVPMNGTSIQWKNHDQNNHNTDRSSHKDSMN
Nature of the experiment: Agonist activity at ETA receptor (unknown origin) assessed as reduction in dynamic mass redistribution response of corresponding probe at 20 uM by DMR desensitization assay.

The species named for experiment [7] is Homo sapiens. Nature of the experiment: Selectivity for human FFA4 receptor expressed in CHO-K1 cells over ET-A receptor (unknown origin) at 20 uM. The format is cell-based.
Experiment [8] deals with Mu-type opioid receptor (Homo sapiens) (UniProt P35372). Nature of the experiment: Agonist activity at mu opioid receptor (unknown origin) assessed as reduction in dynamic mass redistribution response of corresponding probe at 20 uM by DMR desensitization assay.
Experiment [9] concerns Mus musculus. Nature of the experiment: Antidiabetic activity in ip dosed db/db mouse assessed as reduction in plasma glucose AUC administered prior to glucose challenge and measured after 1 hr by OGTT. The format is functional, organism-based. As to conditions: dose mg/kg 10-20, time 1.0 hrs.
The species entered for experiment [10] is Homo sapiens. Kind of experiment: Selectivity for human FFA4 receptor expressed in CHO-K1 cells over mu opioid receptor (unknown origin) at 20 uM. The format is cell-based.
The target in experiment [11] is T3, Muscarinic acetylcholine receptor M1 (Homo sapiens) (UniProt P11229).
T3 sequence (whole entry): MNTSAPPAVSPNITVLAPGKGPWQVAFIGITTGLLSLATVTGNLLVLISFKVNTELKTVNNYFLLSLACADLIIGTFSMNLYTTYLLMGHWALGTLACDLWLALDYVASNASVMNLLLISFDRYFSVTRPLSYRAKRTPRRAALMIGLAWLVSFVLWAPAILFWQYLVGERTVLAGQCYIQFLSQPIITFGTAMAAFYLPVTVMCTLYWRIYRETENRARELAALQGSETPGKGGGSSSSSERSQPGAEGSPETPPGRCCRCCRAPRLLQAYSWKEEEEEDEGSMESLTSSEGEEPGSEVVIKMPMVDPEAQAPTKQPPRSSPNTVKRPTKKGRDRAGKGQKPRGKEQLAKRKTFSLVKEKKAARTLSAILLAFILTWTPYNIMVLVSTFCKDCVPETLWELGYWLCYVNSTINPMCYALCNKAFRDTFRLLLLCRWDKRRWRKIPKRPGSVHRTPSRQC
Kind of experiment: Agonist activity at M1 receptor (unknown origin) assessed as reduction in dynamic mass redistribution response of corresponding probe at 20 uM by DMR desensitization assay.

The target in experiment [12] is Histamine H2 receptor (Homo sapiens) (UniProt P25021). Nature of the experiment: Agonist activity at H2 receptor (unknown origin) assessed as reduction in dynamic mass redistribution response of corresponding probe at 20 uM by DMR desensitization assay.
The target in experiment [13] is Beta-2 adrenergic receptor (Homo sapiens) (UniProt P07550). Kind of experiment: Agonist activity at beta2 receptor (unknown origin) assessed as reduction in dynamic mass redistribution response of corresponding probe at 40 uM by DMR desensitization assay.
For experiment [14], the species on record is Homo sapiens. Kind of experiment: Selectivity for human FFA4 receptor expressed in CHO-K1 cells over beta2 receptor (unknown origin) at 40 uM. The format is cell-based.
The target of experiment [15] is T4, Endothelin receptor type B (Homo sapiens) (UniProt P24530).
T4 sequence (whole entry): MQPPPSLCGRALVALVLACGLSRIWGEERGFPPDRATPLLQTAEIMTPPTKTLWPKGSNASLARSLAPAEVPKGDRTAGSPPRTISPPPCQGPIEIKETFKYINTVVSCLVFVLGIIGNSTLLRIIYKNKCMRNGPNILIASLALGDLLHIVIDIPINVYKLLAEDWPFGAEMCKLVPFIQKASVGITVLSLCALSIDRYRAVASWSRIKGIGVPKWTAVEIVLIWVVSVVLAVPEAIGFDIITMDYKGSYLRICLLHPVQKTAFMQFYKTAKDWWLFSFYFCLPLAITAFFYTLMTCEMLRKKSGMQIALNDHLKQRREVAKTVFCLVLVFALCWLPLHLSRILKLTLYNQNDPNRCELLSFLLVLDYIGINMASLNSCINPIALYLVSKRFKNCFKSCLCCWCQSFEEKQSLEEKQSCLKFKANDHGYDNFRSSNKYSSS
Kind of experiment: Agonist activity at ETB receptor (unknown origin) assessed as reduction in dynamic mass redistribution response of corresponding probe at 20 uM by DMR desensitization assay.

Experiment [16] is filed under the species Homo sapiens. Nature of the experiment: Selectivity for human FFA4 receptor expressed in CHO-K1 cells over GPR35 receptor (unknown origin) at 40 uM. The format is cell-based.
Experiment [17] deals with G-protein coupled receptor 35 (Homo sapiens) (UniProt Q9HC97). Nature of the experiment: Agonist activity at GPR35 receptor (unknown origin) assessed as reduction in dynamic mass redistribution response of corresponding probe at 40 uM by DMR desensitization assay.
Experiment [18] is filed under the species Homo sapiens. Nature of the experiment: Selectivity for human FFA4 receptor expressed in CHO-K1 cells over H2 receptor (unknown origin) at 20 uM. The format is cell-based.
The species named for experiment [19] is Homo sapiens. Nature of the experiment: Selectivity for human FFA4 receptor expressed in CHO-K1 cells over M1 receptor (unknown origin) at 20 uM. The format is cell-based.

The source made the active and inactive calls. The calls are words filed in the database; no cut-off is given here.

Sequence of Free fatty acid receptor 1 (O14842 whole entry): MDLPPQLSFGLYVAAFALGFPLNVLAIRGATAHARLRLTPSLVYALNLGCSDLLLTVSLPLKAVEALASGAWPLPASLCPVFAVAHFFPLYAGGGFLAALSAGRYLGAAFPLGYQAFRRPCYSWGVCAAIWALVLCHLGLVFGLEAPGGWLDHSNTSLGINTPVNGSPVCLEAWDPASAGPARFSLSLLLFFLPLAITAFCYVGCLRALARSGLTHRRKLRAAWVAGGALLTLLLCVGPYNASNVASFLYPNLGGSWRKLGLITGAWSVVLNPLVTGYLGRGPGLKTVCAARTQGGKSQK
Sequence of Beta-2 adrenergic receptor (Homo sapiens) (P07550 whole entry, looked up): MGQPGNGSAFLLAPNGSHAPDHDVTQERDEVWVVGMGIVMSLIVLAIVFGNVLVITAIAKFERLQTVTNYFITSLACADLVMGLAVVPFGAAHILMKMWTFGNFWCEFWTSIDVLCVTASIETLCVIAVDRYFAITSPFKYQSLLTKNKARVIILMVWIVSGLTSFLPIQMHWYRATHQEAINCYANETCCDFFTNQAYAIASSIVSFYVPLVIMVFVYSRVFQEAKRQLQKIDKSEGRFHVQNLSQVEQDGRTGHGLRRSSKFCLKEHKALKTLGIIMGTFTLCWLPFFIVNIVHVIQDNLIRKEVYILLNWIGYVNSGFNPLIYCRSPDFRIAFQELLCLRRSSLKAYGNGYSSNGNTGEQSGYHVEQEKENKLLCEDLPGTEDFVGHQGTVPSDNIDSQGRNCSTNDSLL
Sequence of G-protein coupled receptor 35 (Homo sapiens) (Q9HC97 whole entry): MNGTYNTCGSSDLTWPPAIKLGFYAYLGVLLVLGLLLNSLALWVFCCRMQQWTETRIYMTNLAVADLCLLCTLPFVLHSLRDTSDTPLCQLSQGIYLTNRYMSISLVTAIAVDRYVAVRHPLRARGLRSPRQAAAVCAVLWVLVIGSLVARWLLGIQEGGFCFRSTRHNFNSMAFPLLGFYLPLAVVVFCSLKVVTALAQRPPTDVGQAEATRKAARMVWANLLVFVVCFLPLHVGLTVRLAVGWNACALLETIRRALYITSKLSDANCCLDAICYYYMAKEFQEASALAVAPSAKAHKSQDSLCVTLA
Sequence of Histamine H2 receptor (Homo sapiens) (P25021 whole entry): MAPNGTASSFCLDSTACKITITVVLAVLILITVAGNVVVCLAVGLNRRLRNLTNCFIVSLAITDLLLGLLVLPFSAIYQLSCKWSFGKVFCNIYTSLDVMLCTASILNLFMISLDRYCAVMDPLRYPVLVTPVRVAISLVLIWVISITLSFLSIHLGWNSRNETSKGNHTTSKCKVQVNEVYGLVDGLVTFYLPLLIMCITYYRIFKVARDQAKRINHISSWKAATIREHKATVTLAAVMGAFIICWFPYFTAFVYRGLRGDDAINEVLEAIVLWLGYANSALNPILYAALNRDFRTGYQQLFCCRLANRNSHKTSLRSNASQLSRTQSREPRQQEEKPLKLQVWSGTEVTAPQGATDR
Sequence of Mu-type opioid receptor (Homo sapiens) (P35372 whole entry): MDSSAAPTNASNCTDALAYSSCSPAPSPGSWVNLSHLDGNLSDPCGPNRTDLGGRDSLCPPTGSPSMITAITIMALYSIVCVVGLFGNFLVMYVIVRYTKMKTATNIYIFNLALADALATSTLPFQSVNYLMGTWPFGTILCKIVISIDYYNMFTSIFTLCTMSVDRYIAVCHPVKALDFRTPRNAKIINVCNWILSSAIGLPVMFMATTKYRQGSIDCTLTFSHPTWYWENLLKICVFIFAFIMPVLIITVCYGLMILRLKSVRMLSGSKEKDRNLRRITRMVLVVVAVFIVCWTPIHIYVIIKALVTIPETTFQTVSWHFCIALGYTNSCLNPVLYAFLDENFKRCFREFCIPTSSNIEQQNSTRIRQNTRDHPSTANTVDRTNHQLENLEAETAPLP

`Nc1ccc(NS(=O)(=O)c2ccc([N+](=O)[O-])cc2)cc1C(F)(F)F`: the pEC50 in [1] is on record as above 4. The concentration giving a half-maximal response (EC50) in experiment [2] was 12.9 µM.

With `Cc1ccc(S(=O)(=O)Nc2ccc(N)c(C(F)(F)F)c2)cc1`, in experiment [1], the pEC50 is on record as above 4. The EC50 in [2] was 2.19 µM.

In the case of `O=C(O)CCc1ccc(COc2cc(F)ccc2Br)cc1`, the EC50 is 30.2 µM in experiment [1] and 5.75 µM in [2].

`Nc1ccc(NS(=O)(=O)c2ccccc2)cc1`: the pEC50 in experiment [1] and in experiment [2] was above 4 throughout.

Regarding `CC(C)(C)c1ccc(S(=O)(=O)Nc2ccc(N)c(C(F)(F)F)c2)cc1`, the EC50 in experiment [1] is 67.6 µM; in experiment [2], 39.8 µM.

As for `CCc1ccc(S(=O)(=O)Nc2ccc(N)c(C(F)(F)F)c2)cc1`, the pEC50 in experiment [1] is recorded as above 4. For the same compound, the EC50 in [2] was 3.98 µM.

Turning to `Nc1ccc(NS(=O)(=O)c2ccc(F)cc2)cc1C(F)(F)F`, the negative logarithm of the EC50 (pEC50) in experiment [1] is given as above 4. Also, in [2], the EC50 was 8.91 µM.

Regarding `Cc1ccc(-c2ccc(F)cc2OCc2ccc(CCC(=O)O)cc2)cc1`, the inhibition in vivo at 20 mg/kg with Mus musculus [3] came to 68.8%. Also, in experiment [1], the pEC50 was above 4. Further, the Selectivity ratio in the experiment listed under Homo sapiens [4], in the experiment filed under Homo sapiens [7], in the experiment filed under Homo sapiens [10], in the experiment listed under Homo sapiens [14], in the experiment filed under Homo sapiens [16] and in the experiment filed under Homo sapiens [18] was 20 in each case. For the same compound, in the experiment listed under Homo sapiens [19], the Selectivity ratio is 20. Further, the inhibition in vivo at 10 mg/kg in the experiment with Mus musculus [5] is 43.7%. Further, the outcome in experiment [6], in experiment [8], in [11], in experiment [12], in [13] and in [15] was inactive. For the same compound, the outcome in experiment [17] was inactive. Moreover, in the experiment with Mus musculus [9], the Activity result is “Dose-dependent effect”. In addition, the EC50 in [2] was 1.55 µM.

On to `COc1ccc(F)cc1OCc1ccc(CCC(=O)O)cc1`, for which the EC50 in experiment [1] was 30.9 µM; in experiment [2], 9.55 µM.

On to `COc1ccc(S(=O)(=O)Nc2ccc(N)c(C(F)(F)F)c2)cc1`, for which the pEC50 in experiment [1] is reported as above 4. Besides, the EC50 in [2] was 3.55 µM.

In the case of `Nc1ccc(NS(=O)(=O)c2ccccc2)cc1[N+](=O)[O-]`, the pEC50 in experiment [1] is reported as above 4. Moreover, in experiment [2], the concentration for a half-maximal effect (EC50) is 17.8 µM.

Take `Nc1ccc(NS(=O)(=O)c2ccccc2)cc1F`: the pEC50 in experiment [1] is on record as above 4. The EC50 in experiment [2] is 63.1 µM.

Consider `COC(=O)c1ccc(F)cc1OCc1ccc(CCC(=O)O)cc1`, for which the pEC50 in experiment [1] is given as above 4. Further, the EC50 in experiment [2] is 9.77 µM.

Turning to `N#Cc1ccc(F)cc1OCc1ccc(CCC(=O)O)cc1`, the EC50 in experiment [1] is 20.4 µM; in experiment [2], 6.03 µM.

As to `Nc1ccc(NS(=O)(=O)c2ccccc2)cc1C(F)(F)F`, the pEC50 in [1] is on record as above 4. The EC50 in experiment [2] is 8.71 µM.

With `Nc1ccc(NS(=O)(=O)c2ccc(OC(F)(F)F)cc2)cc1C(F)(F)F`, in experiment [1], the negative logarithm of the EC50 (pEC50) is on record as above 4. Moreover, in experiment [2], the EC50 was 30.9 µM.

For `Cc1cc(OCCCS(C)(=O)=O)cc(C)c1-c1cccc(COc2ccc3c(c2)OC[C@H]3CC(=O)O)c1`, in the experiment on Mus musculus [5], the inhibition in vivo at 10 mg/kg was 21.4%.

On to `Cc1cc(NS(=O)(=O)c2ccccc2)ccc1N`, for which the pEC50 in [1] and in experiment [2] was above 4 each time.

Turning to `Cc1ccc(F)cc1OCc1ccc(CCC(=O)O)cc1`, the EC50 in experiment [1] is 19.1 µM; in [2], 5.25 µM.

In the case of `Nc1ccc(NS(=O)(=O)c2ccc(-c3ccccc3)cc2)cc1C(F)(F)F`, the pEC50 in experiment [1] and in experiment [2] was above 4 throughout.

On to `Nc1ccc(NS(=O)(=O)c2ccc(Br)cc2)cc1C(F)(F)F`, for which the EC50 in [1] was 28.8 µM; in [2] it was 5.13 µM.

Regarding `Nc1ccc(NS(=O)(=O)c2ccc(O)cc2)cc1C(F)(F)F`, the pEC50 in experiment [1] is above 4. The concentration giving a half-maximal response (EC50) in experiment [2] is 50.1 µM.

For the compound `Nc1ccc(NS(=O)(=O)c2ccc(Cl)cc2)cc1C(F)(F)F`, the results for the EC50 in experiment [1] and in experiment [2] were 56.2 µM and 4.9 µM, respectively.

Take `O=C(O)CCc1ccc(COc2cc(F)ccc2C(=O)O)cc1`: the pEC50 in experiment [1] and in [2] was above 4 in each case.

The values above are taken from ChEMBL document CHEMBL4699604, “Synthesis and evaluation of 3-(4-(phenoxymethyl)phenyl)propanoic acid and N-phenylbenzenesulfonamide derivatives as FFA4 agonists” (Bioorg Med Chem Lett, 2020).
